Consider four compounds from ChEMBL document CHEMBL1201862, “PubChem BioAssay data set” (2004).

As usually defined, the IC50 is the concentration that inhibits the measured activity by half. In general, AC50 refers to the concentration giving half of the maximal activity seen.

Molecules are shown by their SMILES. Active and inactive are the calls of the source.

Experiment [1] has as its target Mitogen-activated protein kinase 10 (Homo sapiens, UniProt P53779). Kind of experiment: Dose response biochemical screening assay for inhibitors of c-Jun N-Terminal Kinase 3 (JNK3). [Related pubchem assays: 746 ].
Experiment [2] addresses T1, Cyclin-dependent kinase 5/CDK5 activator 1 (Homo sapiens, UniProt Q00535). The experiment is described as follows: CDK5/p35 kinase inhibitors, dose response, biochemical, cherry-picked samples, set 2 (AID 504545).
In experiment [3] the target is T1, Cyclin-dependent kinase 5/CDK5 activator 1. Kind of experiment: CDK5-p25 kinase inhibitors, specificity check, dose response, selectivity assay for GSK-3 alpha inhibitor project, biochemical, microfluidic mobility shift, dry powder (AID 588430).
In experiment [4] the target is Photoreceptor-specific nuclear receptor (Homo sapiens, UniProt Q9Y5X4). The format is functional, cell-based.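 Also: CHO-S cells with Gal4-NCOR and VP16-NR2E3 two-hybrid luciferase reporter.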
The target in experiment [5] is Glycogen synthase kinase-3 alpha (Homo sapiens, UniProt P49840). The experiment is described as follows: Inhibition of Human GSK-3 alpha Activity Measured in Biochemical System Using Microfluidics - 2063-06_Inhibitor_Dose_DryPowder_Activity_Set2. [Related pubchem assays (depositor defined):AID2709].
The target in experiment [6] is Glycogen synthase kinase-3 beta (Homo sapiens, UniProt P49841). The experiment is described as follows: Inhibition of Human GSK-3 beta Activity Measured in Biochemical System Using Microfluidics - 2063-05_Inhibitor_Dose_DryPowder_Activity_Set2. [Related pubchem assays (depositor defined):AID2709].
Experiment [7] has as its target C-X-C chemokine receptor type 5 (Homo sapiens, UniProt P32302). Kind of experiment: CXCR5 receptor antagonists, SAR follow-up, selectivity assay for CCR6 antagonist project, cell-based, beta-arrestin, luminescence, CHO-K1 PathHunter (AID 540340). The format is functional.
The target of experiment [8] is DNA dC->dU-editing enzyme APOBEC-3G (Homo sapiens, UniProt Q9HC16). The experiment is described as follows: Dose Response confirmation of small molecule APOBEC3G DNA Deaminase Inhibitors via a fluorescence-based single-stranded DNA deaminase assay. [Related pubchem assays (depositor defined):AID493012, AID493028]. The format is functional.
Experiment [9] has as its target DNA dC->dU-editing enzyme APOBEC-3A (Homo sapiens, UniProt P31941). The experiment is described as follows: APOBEC3A DNA deaminase inhibitors, dose response, biochemical (AID 504722). The format is functional.
In experiment [10] the target is C-C chemokine receptor type 6 (Homo sapiens, UniProt P51684). The experiment is described as follows: CCR6 receptor antagonists, SAR follow-up, cell-based, luminescent beta-arrestin readout (AID 540334). The format is functional.
A further experiment deals with Apelin receptor (Homo sapiens, UniProt P35414). Kind of experiment: APJ beta-arrestin recruitment antagonism, SAR follow-up, selectivity assay for CCR6 antagonist project, cell-based, luminescent, enzyme-fragment complementation (AID 588359). The format is functional.
The next experiment has as its system NIH3T3. The experiment is described as follows: mammalian cell toxicity in NIH-3T3 fibroblasts, dose response, cytotoxicity control for antifungal resistance reversal project, Alamar Blue, dry powder, set 2 (AID 488911). The format is functional, cell-based. To be noted: Mus musculus. A general note: Resazurin is reduced to fluorescent resorufin, in cell work by metabolically active cells.

The subject of experiment [11] is Candida albicans. Kind of experiment: fluconazole resistance reversal in C. albicans, dose response, CaCi-2 strain, Alamar Blue, dry powder, set 4 (AID 488943). The format is functional, organism-based.
Experiment [12] relates to Candida albicans. The experiment is described as follows: growth inhibition of azole-resistant C. albicans, dose response, CaCi-8 strain, Alamar Blue, dry powder, set 2 (AID 488909). The format is functional, organism-based.
For experiment [13], the system named is Candida albicans. Kind of experiment: Candida albicans growth inhibition, agent alone, dose response, counter-screen for reversing antifungal drug resistance, CaCi-2 strain, no fluconazole, dry powder, set 4 (AID 488932). The format is functional, organism-based.
The test system of experiment [14] is Candida albicans. The experiment is described as follows: growth inhibition of resistant C. albicans, dose response, CaCi-8 strain, fluconazole, dry powder, set 4 (AID 488950). The format is functional, organism-based.
The target of experiment [15] is T2, Sentrin-specific protease 8 (Homo sapiens, UniProt Q96LD8).
T2 sequence (Q96LD8 whole entry): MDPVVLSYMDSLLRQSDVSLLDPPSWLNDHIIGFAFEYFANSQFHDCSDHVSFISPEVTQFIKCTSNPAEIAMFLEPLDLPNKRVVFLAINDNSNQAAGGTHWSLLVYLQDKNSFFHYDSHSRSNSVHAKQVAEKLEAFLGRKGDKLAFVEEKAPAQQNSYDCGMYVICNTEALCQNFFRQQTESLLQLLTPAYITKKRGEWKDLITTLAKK
Kind of experiment: SENP8 protease inhibitors, SAR follow-up, biochemical, luminescence (AID 504501). The format is functional.

A further experiment deals with T3, Caspase-3 (Homo sapiens, UniProt P42574).
T3 sequence (P42574 whole entry): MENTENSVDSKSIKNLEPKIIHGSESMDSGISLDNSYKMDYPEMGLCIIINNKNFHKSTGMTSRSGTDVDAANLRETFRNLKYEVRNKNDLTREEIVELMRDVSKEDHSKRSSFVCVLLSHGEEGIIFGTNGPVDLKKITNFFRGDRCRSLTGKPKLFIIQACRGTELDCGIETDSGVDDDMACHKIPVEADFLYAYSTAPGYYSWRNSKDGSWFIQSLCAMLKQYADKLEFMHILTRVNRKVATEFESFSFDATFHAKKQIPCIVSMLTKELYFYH
The experiment is described as follows: SAR Analysis of small molecule inhibitors of Sentrin-specific proteases (SENPs) using a Caspase-3 Selectivity assay. [Related pubchem assays (depositor defined):AID2540, AID2599, AID434973, AID489001]. The format is functional.

Experiment [16] deals with T4, Sentrin-specific protease 6 (Homo sapiens, UniProt Q9GZR1).
T4 sequence (Q9GZR1 whole entry): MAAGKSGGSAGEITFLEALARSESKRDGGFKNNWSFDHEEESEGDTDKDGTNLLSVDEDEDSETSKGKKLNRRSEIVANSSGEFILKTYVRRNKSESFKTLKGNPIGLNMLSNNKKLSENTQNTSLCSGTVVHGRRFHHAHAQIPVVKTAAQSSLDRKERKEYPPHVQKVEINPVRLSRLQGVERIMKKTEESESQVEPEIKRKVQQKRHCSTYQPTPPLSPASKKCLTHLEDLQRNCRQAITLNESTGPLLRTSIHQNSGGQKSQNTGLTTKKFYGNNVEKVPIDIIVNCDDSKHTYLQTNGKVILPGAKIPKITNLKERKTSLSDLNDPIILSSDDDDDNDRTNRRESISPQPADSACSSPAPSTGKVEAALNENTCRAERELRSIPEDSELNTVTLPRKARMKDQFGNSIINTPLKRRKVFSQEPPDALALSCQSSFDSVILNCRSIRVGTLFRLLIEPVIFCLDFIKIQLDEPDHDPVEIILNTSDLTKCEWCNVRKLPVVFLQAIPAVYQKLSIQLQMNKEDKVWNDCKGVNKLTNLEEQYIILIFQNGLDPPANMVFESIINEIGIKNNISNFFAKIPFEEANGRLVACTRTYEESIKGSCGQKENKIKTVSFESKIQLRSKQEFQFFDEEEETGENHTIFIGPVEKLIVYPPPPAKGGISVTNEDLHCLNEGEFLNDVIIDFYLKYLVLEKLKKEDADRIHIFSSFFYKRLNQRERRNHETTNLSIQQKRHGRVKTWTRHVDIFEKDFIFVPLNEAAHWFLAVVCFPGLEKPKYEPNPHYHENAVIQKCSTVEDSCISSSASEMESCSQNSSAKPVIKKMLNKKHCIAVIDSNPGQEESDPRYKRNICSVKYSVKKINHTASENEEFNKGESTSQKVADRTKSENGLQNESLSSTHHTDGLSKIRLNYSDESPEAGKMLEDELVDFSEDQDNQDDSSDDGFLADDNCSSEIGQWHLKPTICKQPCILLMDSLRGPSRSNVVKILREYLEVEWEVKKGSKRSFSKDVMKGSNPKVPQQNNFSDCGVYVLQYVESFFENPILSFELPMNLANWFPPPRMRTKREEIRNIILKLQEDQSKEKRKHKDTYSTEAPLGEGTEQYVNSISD
The experiment is described as follows: SAR Analysis of small molecule inhibitors of Sentrin-specific protease 6 (SENP6) using a Luminescent assay. [Related pubchem assays (depositor defined):AID2582, AID2599]. The format is functional.

For experiment [17], the target named is T5, Sentrin-specific protease 7 (Homo sapiens, UniProt Q9BQF6).
T5 sequence (Q9BQF6 whole entry): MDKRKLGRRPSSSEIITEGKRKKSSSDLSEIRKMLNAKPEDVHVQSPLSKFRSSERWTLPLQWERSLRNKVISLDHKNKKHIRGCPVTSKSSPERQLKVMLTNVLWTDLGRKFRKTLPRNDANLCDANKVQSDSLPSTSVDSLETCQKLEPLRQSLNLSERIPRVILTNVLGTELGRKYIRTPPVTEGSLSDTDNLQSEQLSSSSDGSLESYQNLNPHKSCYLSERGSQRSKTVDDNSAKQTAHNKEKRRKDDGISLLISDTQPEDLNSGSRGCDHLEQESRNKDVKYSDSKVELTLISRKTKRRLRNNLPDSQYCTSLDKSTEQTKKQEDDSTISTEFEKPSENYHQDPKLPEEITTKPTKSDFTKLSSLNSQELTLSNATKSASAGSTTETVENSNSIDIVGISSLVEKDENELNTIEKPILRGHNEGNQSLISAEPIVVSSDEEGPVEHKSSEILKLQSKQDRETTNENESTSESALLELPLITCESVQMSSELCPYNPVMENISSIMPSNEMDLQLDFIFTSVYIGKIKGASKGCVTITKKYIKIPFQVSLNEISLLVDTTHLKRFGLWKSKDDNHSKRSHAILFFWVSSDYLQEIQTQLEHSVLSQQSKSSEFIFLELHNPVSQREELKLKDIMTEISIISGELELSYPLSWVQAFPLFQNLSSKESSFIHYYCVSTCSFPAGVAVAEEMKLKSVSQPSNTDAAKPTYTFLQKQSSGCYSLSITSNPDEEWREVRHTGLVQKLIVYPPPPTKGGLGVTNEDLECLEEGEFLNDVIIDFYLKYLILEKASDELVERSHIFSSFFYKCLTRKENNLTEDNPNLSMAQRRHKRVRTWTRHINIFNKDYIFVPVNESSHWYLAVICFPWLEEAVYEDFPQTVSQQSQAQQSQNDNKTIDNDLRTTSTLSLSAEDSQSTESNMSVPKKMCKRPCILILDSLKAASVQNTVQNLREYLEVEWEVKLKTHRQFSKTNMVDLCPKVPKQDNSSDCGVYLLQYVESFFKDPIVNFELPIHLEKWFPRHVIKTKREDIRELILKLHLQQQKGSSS
The experiment is described as follows: SENP7 protease inhibitors, SAR follow-up, biochemical, luminescence (AID 504497). The format is functional.

T1 sequence (Q00535 whole entry): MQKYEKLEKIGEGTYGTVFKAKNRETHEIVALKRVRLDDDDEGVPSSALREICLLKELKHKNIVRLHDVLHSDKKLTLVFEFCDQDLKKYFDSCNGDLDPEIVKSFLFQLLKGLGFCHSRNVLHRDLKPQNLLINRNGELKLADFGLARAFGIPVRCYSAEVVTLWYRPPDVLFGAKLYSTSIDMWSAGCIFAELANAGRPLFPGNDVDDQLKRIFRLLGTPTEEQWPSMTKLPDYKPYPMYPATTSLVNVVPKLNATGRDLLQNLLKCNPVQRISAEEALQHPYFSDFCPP
T1 sequence (Q15078 whole entry, further chain): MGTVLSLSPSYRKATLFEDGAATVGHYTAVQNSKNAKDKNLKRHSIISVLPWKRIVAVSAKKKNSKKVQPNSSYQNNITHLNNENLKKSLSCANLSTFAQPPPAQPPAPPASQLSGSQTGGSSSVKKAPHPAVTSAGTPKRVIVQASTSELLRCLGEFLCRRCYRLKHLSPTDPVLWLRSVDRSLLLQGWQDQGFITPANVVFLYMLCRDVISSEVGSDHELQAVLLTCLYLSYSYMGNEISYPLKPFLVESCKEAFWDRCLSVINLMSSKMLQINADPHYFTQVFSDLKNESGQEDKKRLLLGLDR
Sequence of C-C chemokine receptor type 6 (P51684 whole entry, the tested form may be a part): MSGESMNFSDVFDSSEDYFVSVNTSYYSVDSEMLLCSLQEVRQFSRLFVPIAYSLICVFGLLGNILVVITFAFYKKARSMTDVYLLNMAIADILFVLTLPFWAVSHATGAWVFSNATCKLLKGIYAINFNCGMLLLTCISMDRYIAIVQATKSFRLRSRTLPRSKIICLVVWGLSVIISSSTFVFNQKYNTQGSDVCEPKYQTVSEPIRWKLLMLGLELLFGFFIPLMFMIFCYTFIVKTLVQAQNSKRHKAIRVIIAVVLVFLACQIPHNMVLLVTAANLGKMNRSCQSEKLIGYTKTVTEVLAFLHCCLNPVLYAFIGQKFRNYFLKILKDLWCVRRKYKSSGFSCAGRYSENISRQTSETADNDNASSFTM
Sequence of C-X-C chemokine receptor type 5 (P32302 whole entry): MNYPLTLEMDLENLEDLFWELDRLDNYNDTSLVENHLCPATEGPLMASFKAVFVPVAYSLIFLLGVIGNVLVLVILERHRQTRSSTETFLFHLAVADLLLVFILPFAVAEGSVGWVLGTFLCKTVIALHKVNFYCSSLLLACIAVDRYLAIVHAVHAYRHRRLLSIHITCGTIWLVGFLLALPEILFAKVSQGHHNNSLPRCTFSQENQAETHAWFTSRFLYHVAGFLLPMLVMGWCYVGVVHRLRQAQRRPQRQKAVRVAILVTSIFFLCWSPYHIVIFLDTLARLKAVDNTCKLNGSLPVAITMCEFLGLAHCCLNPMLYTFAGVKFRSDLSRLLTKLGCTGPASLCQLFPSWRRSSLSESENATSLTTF
Sequence of Mitogen-activated protein kinase 10 (P53779 whole entry): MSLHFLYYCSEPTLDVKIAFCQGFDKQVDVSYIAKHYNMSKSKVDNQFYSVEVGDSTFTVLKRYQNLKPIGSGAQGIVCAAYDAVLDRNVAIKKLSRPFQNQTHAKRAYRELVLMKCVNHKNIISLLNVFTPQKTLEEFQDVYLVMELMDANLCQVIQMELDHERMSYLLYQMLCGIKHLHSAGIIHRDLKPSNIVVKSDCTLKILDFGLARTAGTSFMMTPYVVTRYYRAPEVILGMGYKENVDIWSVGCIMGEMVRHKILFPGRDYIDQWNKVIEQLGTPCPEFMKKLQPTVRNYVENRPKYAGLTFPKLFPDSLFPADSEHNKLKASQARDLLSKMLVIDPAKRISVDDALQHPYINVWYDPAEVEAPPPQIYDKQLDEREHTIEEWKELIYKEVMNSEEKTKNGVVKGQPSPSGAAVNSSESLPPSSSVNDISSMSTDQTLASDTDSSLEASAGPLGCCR
Sequence of DNA dC->dU-editing enzyme APOBEC-3A (P31941 whole entry): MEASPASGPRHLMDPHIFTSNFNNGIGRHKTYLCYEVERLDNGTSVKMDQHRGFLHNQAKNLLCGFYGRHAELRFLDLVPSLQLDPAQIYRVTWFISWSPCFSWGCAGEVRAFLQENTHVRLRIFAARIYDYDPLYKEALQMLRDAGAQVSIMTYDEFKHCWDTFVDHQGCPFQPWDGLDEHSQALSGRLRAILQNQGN
Sequence of Glycogen synthase kinase-3 beta (P49841 whole entry): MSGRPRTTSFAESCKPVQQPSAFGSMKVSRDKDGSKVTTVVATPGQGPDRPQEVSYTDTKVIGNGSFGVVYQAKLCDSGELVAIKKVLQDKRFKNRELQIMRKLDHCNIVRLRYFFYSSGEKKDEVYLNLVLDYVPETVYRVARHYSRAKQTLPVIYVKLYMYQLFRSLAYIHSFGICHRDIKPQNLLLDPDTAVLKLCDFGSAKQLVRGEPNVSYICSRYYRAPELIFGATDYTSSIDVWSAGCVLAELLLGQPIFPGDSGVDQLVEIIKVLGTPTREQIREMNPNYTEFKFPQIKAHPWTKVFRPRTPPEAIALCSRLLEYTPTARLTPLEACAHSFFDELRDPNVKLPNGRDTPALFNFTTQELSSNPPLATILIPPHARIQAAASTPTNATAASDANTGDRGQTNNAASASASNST
Sequence of Glycogen synthase kinase-3 alpha (P49840 whole entry): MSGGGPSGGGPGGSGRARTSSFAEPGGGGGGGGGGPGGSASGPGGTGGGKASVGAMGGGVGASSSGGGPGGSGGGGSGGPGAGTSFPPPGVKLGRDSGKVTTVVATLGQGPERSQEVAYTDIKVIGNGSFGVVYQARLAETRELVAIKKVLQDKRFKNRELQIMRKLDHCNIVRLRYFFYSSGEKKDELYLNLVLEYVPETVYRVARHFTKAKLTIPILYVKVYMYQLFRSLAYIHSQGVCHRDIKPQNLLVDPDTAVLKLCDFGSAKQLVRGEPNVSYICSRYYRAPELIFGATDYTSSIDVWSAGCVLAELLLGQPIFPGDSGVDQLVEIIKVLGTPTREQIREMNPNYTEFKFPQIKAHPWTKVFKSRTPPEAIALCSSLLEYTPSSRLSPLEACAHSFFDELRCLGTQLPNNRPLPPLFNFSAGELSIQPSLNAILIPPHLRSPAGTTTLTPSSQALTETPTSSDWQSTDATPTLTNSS
Sequence of Apelin receptor (P35414 whole entry, the tested form may be a part): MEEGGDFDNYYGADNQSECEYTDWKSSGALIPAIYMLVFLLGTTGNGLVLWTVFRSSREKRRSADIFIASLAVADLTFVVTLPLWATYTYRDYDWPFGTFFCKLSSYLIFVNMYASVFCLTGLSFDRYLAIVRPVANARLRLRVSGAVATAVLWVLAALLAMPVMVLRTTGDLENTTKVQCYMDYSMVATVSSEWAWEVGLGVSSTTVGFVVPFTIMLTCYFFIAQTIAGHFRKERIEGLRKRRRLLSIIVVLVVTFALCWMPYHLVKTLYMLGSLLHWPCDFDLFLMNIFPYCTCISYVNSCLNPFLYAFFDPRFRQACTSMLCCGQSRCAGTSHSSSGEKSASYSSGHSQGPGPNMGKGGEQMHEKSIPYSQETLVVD
Sequence of Photoreceptor-specific nuclear receptor (Q9Y5X4 whole entry, the tested form may be a part): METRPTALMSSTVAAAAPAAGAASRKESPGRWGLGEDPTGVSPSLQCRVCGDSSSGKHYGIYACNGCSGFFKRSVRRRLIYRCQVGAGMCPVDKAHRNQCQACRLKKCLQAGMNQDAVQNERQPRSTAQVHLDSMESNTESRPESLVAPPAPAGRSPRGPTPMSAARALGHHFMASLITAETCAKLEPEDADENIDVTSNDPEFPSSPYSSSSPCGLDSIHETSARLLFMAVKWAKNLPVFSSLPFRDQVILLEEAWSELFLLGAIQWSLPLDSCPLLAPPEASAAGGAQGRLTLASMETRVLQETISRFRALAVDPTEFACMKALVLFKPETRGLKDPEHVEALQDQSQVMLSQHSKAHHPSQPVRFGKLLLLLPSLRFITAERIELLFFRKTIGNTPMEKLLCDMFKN
Sequence of DNA dC->dU-editing enzyme APOBEC-3G (Q9HC16 whole entry): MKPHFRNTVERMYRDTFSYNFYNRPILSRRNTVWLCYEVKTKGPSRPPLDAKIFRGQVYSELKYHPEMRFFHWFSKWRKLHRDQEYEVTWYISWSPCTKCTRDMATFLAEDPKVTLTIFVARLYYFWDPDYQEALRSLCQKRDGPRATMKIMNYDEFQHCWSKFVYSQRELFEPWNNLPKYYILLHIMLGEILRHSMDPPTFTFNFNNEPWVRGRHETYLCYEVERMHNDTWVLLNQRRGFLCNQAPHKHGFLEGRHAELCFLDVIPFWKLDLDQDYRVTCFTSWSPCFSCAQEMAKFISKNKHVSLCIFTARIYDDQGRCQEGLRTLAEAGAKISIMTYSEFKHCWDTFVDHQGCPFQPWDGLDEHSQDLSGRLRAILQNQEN

In the case of `COc1cccc(C(=O)c2sc(NC(C)C)nc2N)c1`, the IC50 in experiment [1] was > 31 µM (not active); in experiment [4], 0.0182 µM (active). Moreover, the AC50 was 7.12 µM (active) in [2], 1.11 µM (active) in [3], 0.288 µM (active) in experiment [5] and 0.252 µM (active) in experiment [6].

For `O=C1C2C3C=CC(CO)(O3)C2C(=O)N1c1ccccc1-c1ccccc1` (stereo not given), the IC50 in experiment [7] is 52.7 µM (inactive); in experiment [8], 11.4 µM (active); in [9], > 100 µM (inactive); in experiment [10], > 66.6 µM (inactive); at Apelin receptor it was > 66.6 µM (inactive).

`O=C(c1ccc(Cl)cc1)N1CCN(c2cccnc2)CC1`: the AC50 is 190 µM (active) in the experiment with NIH3T3; 25 µM (active) with Candida albicans [11]; 30.5 µM (active) with Candida albicans [12]; 43.5 µM (active) in the experiment on Candida albicans [13]; 20.4 µM (active) in the experiment on Candida albicans [14].

For `N#Cc1cccc(-c2nc(/C=C/c3ccc(F)cc3)no2)c1`, the IC50 (in [15]; on Caspase-3; in experiment [16]; in experiment [17]) was > 99 µM (inactive) in each case.
